Test system: 616215-338-R-J1-PDC complex spheroid viability
Assay: Anticancer human tumor 616215-338-R-J1-PDC patient-derived colon adenocarcinoma cell line growth inhibition [POLQ]
Conditions: for IC50: curve of first compound; for viability, T/C: stronger effect = lower value
Method: Multicellular complex tumor spheroid response to Polymerase (POL) inhibitors (novobiocin, ART-558, RP6685) in combination with a variety of drugs and investigational agents in selected tumor cell lines
The POL inhibitors (novobiocin, ART-558, and RP6685) were evaluated both individually and in combination with standard of care and investigational anticancer small molecules within a complex spheroid model of solid tumors. . Complex spheroids include a stromal component modeled by human endothelial cells (HUVEC) and fibroblasts modeled by human mesenchymal stem cells (MSCs). The concentration ranges selected for each drug and investigational agent were based upon clinically achievable concentrations if the clinical Cmax of the agent was known.
Compounds. The drugs and investigational agents: novobiocin (NSC847541), ART-558 (NSC835418), RP-6685 (NSC848927), peposertib (NSC802822), ceralasertib (NSC780249), elimusertib (NSC800525), camonsertib (NSC841442), AZD-1390 (NSC803789), olaparib (NSC753686), talazoparib (NSC767125), rucaparib (NSC756644), sotorasib (NSC818433), MRTX-1133 (NSC836407), SN-38 (NSC673596), topotecan (NSC609699), epotoside (NSC141540), doxorubicin (NSC123127), gemcitabine (NSC613327), 5-fluorouracil (NSC19893), paclitaxel (NSC125973), vemurafenib (NSC761431), MSA-2 (NSC828583), SN-011 (NSC837082), adavosertib (NSC754352), prexasertib (NSC758257), carboplatin (NSC241240) and oxaliplatin (NSC266046), were obtained from the National Cancer Institute (NCI) Developmental Therapeutics Program Chemical Repository (21). The FDA-approved anticancer drug set is available from the Developmental Therapeutics Program at https://dtp.cancer.gov/organization/dscb/obtaining/. […] The stock solutions were prepared in dimethyl sulfoxide (DMSO, Sigma-Aldrich, St. Louis, MO, cat. D2650), except for the platinum compounds which were prepared in saline (Quality Biological, Gaithersburg, MD, cat. 114-055-101), at 800-fold the tested concentration and stored at -70 degrees C prior to their use. All drugs and investigational agents were tested over a range starting from a high concentration at or near the clinical Cmax and decreasing in half-log increments. If the clinical Cmax for an agent had not been determined, the highest concentration tested was 10 microM, except for SN-38, which was tested at a high concentration of 1 microM.
Cell Culture. All cells were maintained in an incubator at 37 degrees C and 5% CO2 with 95% humidity. The PDC lines were cultured according to standard operating procedures established by the NCI PDMR (https://pdmr.cancer.gov). Table 3 of the manuscript, lists the cell lines along with the number of the three cell types plated to form the mct-spheroids and media for tumor cell growth. After thawing, all PDC lines, except 997537-175-T-J1-PDC and 415267-285-R-J2-PDC, were cultured in Matrigel-coated flasks prepared with a working solution of 1X Ham's F-12 nutrient mix, without supplementation (Thermo Fisher Scientific, cat. 11765054), 100 U/mL penicillin-streptomycin (Thermo Fisher Scientific, cat. 15140122), and 2.5% Matrigel (Corning Inc., Corning, NY, cat. 354248) for the first three passages. The two PDC lines 997537-175-T-J1-PDC and 415267-285-R-J2-PDC were cultured on uncoated flasks. The 857933-349-R-J2-PDC line was cultured in 6C/Colon 1B media containing advanced DMEM/F-12 (Thermo Fisher Scientific, cat. 12634028), 10 mM HEPES (Thermo Fisher Scientific, cat. 15630080), 1X GlutaMAX supplement (Thermo Fisher Scientific, cat. 35050061), 0.1 mg/mL primocin (InvivoGen, San Diego, CA, cat. ant-pm-2), 10% defined fetal bovine serum, heat inactivated (HyClone Laboratories Inc., Logan, UT, cat. SH30070.03HI), 50% L-WRN conditioned media (ATCC, cat. CRL-3276), 1.25 mM N-Acetyl-L-cysteine (Sigma-Aldrich, cat. A9165), 10 mM nicotinamide (Sigma-Aldrich, cat. N0636), 1X B-27 supplement (Thermo Fisher Scientific, cat. 17504044), 1X N-2 supplement (Thermo Fisher Scientific, cat. […]

[1] = second compound 0.0316 µM, first compound 0.0316 µM
[2] = second compound 0.0316 µM, first compound 0.1 µM
[3] = second compound 0.0316 µM, first compound 0.316 µM
[4] = second compound 0.0316 µM, first compound 1 µM
[5] = second compound 0.0316 µM, first compound 3.16 µM
[6] = second compound 0.0316 µM, first compound 10 µM
[7] = second compound 0.1 µM, first compound 0.0316 µM
[8] = second compound 0.1 µM, first compound 0.1 µM
[9] = second compound 0.1 µM, first compound 0.316 µM
[10] = second compound 0.1 µM, first compound 1 µM
[11] = second compound 0.1 µM, first compound 3.16 µM
[12] = second compound 0.1 µM, first compound 10 µM
[13] = second compound 0.316 µM, first compound 0.0316 µM
[14] = second compound 0.316 µM, first compound 0.1 µM
[15] = second compound 0.316 µM, first compound 0.316 µM
[16] = second compound 0.316 µM, first compound 1 µM
[17] = second compound 0.316 µM, first compound 3.16 µM
[18] = second compound 0.316 µM, first compound 10 µM
[19] = second compound 1 µM, first compound 0.0316 µM
[20] = second compound 1 µM, first compound 0.1 µM
[21] = second compound 1 µM, first compound 0.316 µM
[22] = second compound 1 µM, first compound 1 µM
[23] = second compound 1 µM, first compound 3.16 µM
[24] = second compound 1 µM, first compound 10 µM
[25] = second compound 3.16 µM, first compound 0.0316 µM
[26] = second compound 3.16 µM, first compound 0.1 µM
[27] = second compound 3.16 µM, first compound 0.316 µM
[28] = second compound 3.16 µM, first compound 1 µM
[29] = second compound 3.16 µM, first compound 3.16 µM
[30] = second compound 3.16 µM, first compound 10 µM
[31] = second compound 10 µM, first compound 0.0316 µM
[32] = second compound 10 µM, first compound 0.1 µM
[33] = second compound 10 µM, first compound 0.316 µM
[34] = second compound 10 µM, first compound 1 µM
[35] = second compound 10 µM, first compound 3.16 µM
[36] = second compound 10 µM, first compound 10 µM
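Note: spheroids exposed to compounds for one week before readout.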
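Throughout, for viability, T/C: percent viability relative to DMSO vehicle wells taken as 100%.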

Compound: COc1ccc([C@@H](O)c2cc(-c3ncnc4cc(N5CCOCC5)ccc34)c(F)cc2Cl)nn1 + Nc1ccc(C#CCN(C(=O)Cc2ncc(C(F)(F)F)cc2C(F)(F)F)c2ccc(F)cc2)nn1
- IC50 (second compound 0.0316 µM): > 10 µM
- IC50 (second compound 0.1 µM): 9.54 µM
- IC50 (second compound 0.316 µM): > 10 µM
- IC50 (second compound 1 µM): > 10 µM
- IC50 (second compound 3.16 µM): > 10 µM
- IC50 (second compound 10 µM): 4.73 µM
- viability, T/C [1]: 90.8%
- viability, T/C [2]: 106%
- viability, T/C [3]: 96%
- viability, T/C [4]: 93%
- viability, T/C [5]: 95.8%
- viability, T/C [6]: 61.9%
- viability, T/C [7]: 90.6%
- viability, T/C [8]: 115%
- viability, T/C [9]: 106%
- viability, T/C [10]: 94%
- viability, T/C [11]: 92.3%
- viability, T/C [12]: 47.7%
- viability, T/C [13]: 97.4%
- viability, T/C [14]: 92.1%
- viability, T/C [15]: 96.9%
- viability, T/C [16]: 107%
- viability, T/C [17]: 90.3%
- viability, T/C [18]: 52.7%
- viability, T/C [19]: 107%
- viability, T/C [20]: 118%
- viability, T/C [21]: 94.5%
- viability, T/C [22]: 87.2%
- viability, T/C [23]: 94.4%
- viability, T/C [24]: 49.8%
- viability, T/C [25]: 113%
- viability, T/C [26]: 109%
- viability, T/C [27]: 93.7%
- viability, T/C [28]: 85.7%
- viability, T/C [29]: 77.7%
- viability, T/C [30]: 47.9%
- viability, T/C [31]: 103%
- viability, T/C [32]: 99.9%
- viability, T/C [33]: 88.7%
- viability, T/C [34]: 76.5%
- viability, T/C [35]: 45.8%
- viability, T/C [36]: 50%

Compound: Nc1ccn(C2OC(CO)C(O)C2(F)F)c(=O)n1 (stereo unspecified) + Nc1ccc(C#CCN(C(=O)Cc2ncc(C(F)(F)F)cc2C(F)(F)F)c2ccc(F)cc2)nn1
- IC50 (second compound 0.0316 µM): < 0.0316 µM
- IC50 (second compound 0.1 µM): < 0.0316 µM
- IC50 (second compound 0.316 µM): < 0.0316 µM
- IC50 (second compound 1 µM): < 0.0316 µM
- IC50 (second compound 3.16 µM): < 0.0316 µM
- IC50 (second compound 10 µM): < 0.0316 µM
- viability, T/C [1]: 22.1%
- viability, T/C [2]: 17.1%
- viability, T/C [3]: 10.8%
- viability, T/C [4]: 10.9%
- viability, T/C [5]: 14.9%
- viability, T/C [6]: 16.1%
- viability, T/C [7]: 27.7%
- viability, T/C [8]: 15.5%
- viability, T/C [9]: 12.6%
- viability, T/C [10]: 12.6%
- viability, T/C [11]: 12.6%
- viability, T/C [12]: 12.6%
- viability, T/C [13]: 28.6%
- viability, T/C [14]: 24.1%
- viability, T/C [15]: 10.9%
- viability, T/C [16]: 13.3%
- viability, T/C [17]: 12.6%
- viability, T/C [18]: 13.8%
- viability, T/C [19]: 22.7%
- viability, T/C [20]: 15.2%
- viability, T/C [21]: 11.2%
- viability, T/C [22]: 12.6%
- viability, T/C [23]: 13.1%
- viability, T/C [24]: 13.3%
- viability, T/C [25]: 23.6%
- viability, T/C [26]: 19.6%
- viability, T/C [27]: 12%
- viability, T/C [28]: 10.3%
- viability, T/C [29]: 13.6%
- viability, T/C [30]: 13.9%
- viability, T/C [31]: 26.8%
- viability, T/C [32]: 20.3%
- viability, T/C [33]: 12.2%
- viability, T/C [34]: 12.6%
- viability, T/C [35]: 11.3%
- viability, T/C [36]: 12.2%

Compound: O=C(Nc1ccc(O)c(NS(=O)(=O)c2ccc(F)cc2)c1)c1ccc(-c2ccccc2)cc1 + Nc1ccc(C#CCN(C(=O)Cc2ncc(C(F)(F)F)cc2C(F)(F)F)c2ccc(F)cc2)nn1
- IC50 (second compound 0.0316 µM): 9.93 µM
- IC50 (second compound 0.1 µM): > 10 µM
- IC50 (second compound 0.316 µM): > 10 µM
- IC50 (second compound 1 µM): > 10 µM
- IC50 (second compound 3.16 µM): > 10 µM
- IC50 (second compound 10 µM): 6.56 µM
- viability, T/C [1]: 108%
- viability, T/C [2]: 105%
- viability, T/C [3]: 105%
- viability, T/C [4]: 104%
- viability, T/C [5]: 119%
- viability, T/C [6]: 49.7%
- viability, T/C [7]: 108%
- viability, T/C [8]: 105%
- viability, T/C [9]: 114%
- viability, T/C [10]: 105%
- viability, T/C [11]: 100%
- viability, T/C [12]: 56%
- viability, T/C [13]: 108%
- viability, T/C [14]: 107%
- viability, T/C [15]: 103%
- viability, T/C [16]: 104%
- viability, T/C [17]: 96.6%
- viability, T/C [18]: 72.6%
- viability, T/C [19]: 105%
- viability, T/C [20]: 106%
- viability, T/C [21]: 106%
- viability, T/C [22]: 101%
- viability, T/C [23]: 91.2%
- viability, T/C [24]: 54%
- viability, T/C [25]: 106%
- viability, T/C [26]: 103%
- viability, T/C [27]: 102%
- viability, T/C [28]: 102%
- viability, T/C [29]: 76.5%
- viability, T/C [30]: 50.7%
- viability, T/C [31]: 93.9%
- viability, T/C [32]: 84.2%
- viability, T/C [33]: 93.2%
- viability, T/C [34]: 105%
- viability, T/C [35]: 85.8%
- viability, T/C [36]: 29.3%

— PubChem BioAssay AID1963843 (Molecular Pharmacology Branch, DTP, NCI, 2024)
